Source: patent US20120149708A1, “MODULATORS OF VIRAL TRANSCRIPTION, AND METHODS AND COMPOSITIONS THEREWITH” (George Mason University, priority 2010, published 2012)

Legend:
[1] = tested on: uninfected CEM, Jurkat T-cells, and U937 cells; experiment: MTT assay, uninfected cells; format: cell-based
Method: FIGS. 1 and 2 show screening results of CR8 derivatives on Tat-dependent transcription HIV-1 LTR. […] TZM-bl cells were transfected with 1 ug of Tat and treated the next day with DMSO, or the indicated CR8 derivative compounds at 50 nm. 48 hrs-post drug treatment, luciferase activity of the firefly luciferase was measured with the BrightGlo Luciferase Assay and luminescence was read from a 96 well plate on an EG&G Berthold luminometer. Assays were performed in triplicate, average and standard deviations are shown.
Quantitative MTT assays were performed (FIG. 2), to further validate the cell growth inhibitory activity of certain Formula I compounds. In this study, cultured, infected ACH2, J1.1, OM10.1, U1 and uninfected CEM, Jurkat T-cells, and U937 cells were brought in contact with Formula I compounds CR8, MRT-033, and BJFP1154 (CR8#13). Cell growth inhibition study was performed at two different concentrations of the inventive compounds, a low concentration of 50 nm, and high concentration of 10 μM.

3′TAR and 5′TAR microRNA = experiment: Poly-A RT-PCR of TAR microRNA in TZM-bl cells with or without TSA; format: cell-based, HIV-1; details: for 3′ TAR microRNA amount: non-TSA treated TZM-bl cells, Flavopiridol 50 nm, CR8 100 nm, CR8#13 100 nm
Method: RNA was extracted 48 hrs-post drug treatment. 500 ng of RNA from the microRNA-enriched fraction was used to generate cDNA using the Quantimir kit (SBI) in order to poly adenylate small RNA species. RT reactions were performed followed by PCR in which a universal reverse primer was provided by the manufacturer. Specific microRNA forward primers are identical in sequence to the microRNA of interest. PCR products corresponding to the amplified microRNAs were separated in a 3.5% (w/v) agarose gel. The PCR products are at around 67 bp as compared with the Fermentas 1 kb DNA Plus Ladder. Increased levels of 3′TAR microRNA were produced post CR8#13 treatment.
For poly-A RT-PCR detection of microRNAs, 500 ng of RNA from the microRNA-enriched fraction was used to generate cDNA using the Quantimir kit (SBI) according to the manufacturer's protocol. Briefly, small RNA species are poly-adenylated and then reverse transcription reactions are performed with a company-provided RT primer. For PCR, a universal reverse primer is provided by the manufacturer. Specific microRNA forward primers are identical in sequence to the microRNA of interest. PCR products corresponding to the amplified microRNAs were separated in a 3.5% (w/v) agarose gel and quantified using the Kodak 1D software.
To determine whether the cdk inhibitors Flavopiridol, CR8, and CR8#13 increased levels of TAR microRNA in the TSA-treated and control TZM-bl cells total RNA was extracted from both TSA treated and control cells treated with Flavopiridol, CR8, and CR8#13 and processed for RT-PCR detection of microRNAs, specifically, for the presence of 3′TAR and 5′TAR molecules.

[2] = tested on: J1.1 cells (HIV-1 infected); experiment: Cell viability by trypan blue exclusion, 48 hours; format: cell-based
Method: (§1) In brief, the inhibition studies were carried out as follows. HIV-1 infected cells ACH2, J1.1, OM10.1, U1 and uninfected CEM, Jurkat T-cells, and U937 were cultured in media. The appropriate inhibitor was added at a concentration of 10 μM. Cells were treated for 48 hours and cell viability was determined using trypan blue exclusion method. Results of such a screen for 19 inhibitors is shown in Table 1 where percent dead cells are indicated each drug tested.
(§2) Again HIV-1 infected and uninfected cells were treated with eighteen Formula I compounds at a drug concentration of 50 nm. Forty-eight hours after treatment, cytotoxicity was determined by trypan blue dye exclusion. Percent inhibition was calculated after obtaining the cell density for each well of the tissue culture plate at the end of 48 hrs.

[3] = tested on: U1 cells (HIV-1 infected); experiment: Cell viability by trypan blue exclusion, 48 hours; format: cell-based
Method: as §1, §2

[4] = tested on: OM10.1 cells (HIV-1 infected); experiment: Cell viability by trypan blue exclusion, 48 hours; format: cell-based
Method: as §1, §2

[5] = tested on: ACH2 cells (HIV-1 infected); experiment: Cell viability by trypan blue exclusion, 48 hours; format: cell-based; details: HIV-1 infected
Method: (§3) TZM-bl cell lines were grown in Dulbecco's modified Eagle's medium supplemented with fetal bovine serum (FBS) (10%, v/v), 2 mM L-glutamine, and antibiotics (penicillin 100 U/ml, streptomycin […]) (cDMEM). HCT116 WT and HCT116 Dicer−/−cell lines were grown in McCoy's medium supplemented with FBS (10%, v/v), 2mM L-glutamine, and antibiotics (penicillin 100 U/ml, streptomycin […]). CEM, ACH2, Jurkat and U937 cells were grown in RPMI 1640 supplemented with FBS, L-glutamine, and antibiotics (penicillin 100 U/ml, streptomycin […]). All cell lines were maintained at 37° C. in 5% (v/v) CO2. […]
as §1, §2

[6] = tested on: Jurkat T-cells (uninfected); experiment: Cell viability by trypan blue exclusion, 48 hours; format: cell-based
Method: as §3, §1, §2

[7] = tested on: HIV-1 (pNL4.3) in promonocytic U937 cells; experiment: Reverse transcriptase assay of supernatants, pNL4.3 electroporated cells; format: cell-based; details: Flavopiridol 200 nm, CR8 100 nm, CR8#13 50 nm, 48 hours
Method: (§4) Jurkat T-cell and promonocytic U937 cells were electroporated with 5 μg pNL4.3 followed the next day by drug treatment of Flavopiridol (200 nm), CR8 (100 nm) or CR8#13 (50 nm). Cell supernatants were collected at 48 hours post drug treatment. Viral supernatants (10 μl) were incubated in a 96-well plate with reverse transcriptase (RT) reaction mixture overnight at 37° C., and 10 μl of the reaction mix was spotted on a DEAE Filtermat paper, washed with 5% (w/v) Na2HPO4 followed by water wash, and then dried completely. RT activity was measured in a Betaplate counter.
(§5) For electroporations, Jurkat and U937 cells were resuspended at 3 million cells in 250 μl of RPMI. Five microgram of pNL4-3 was then added to the cell suspension. Cells were pulsed a single time at 210V, 800 μF, and low resistance. Electroporated cells were immediately transferred to RPMI-1640 with L-glutamine and Penicillin/Streptomycin with 10% (v/v) FBS and plated in 6 well plates. Twenty four hours-post electroporation, cells were treated with drugs for additional 48 hrs and harvested for RT analysis. RT assays were performed as described in ((Guendel et al. 2009; Easley et al. 2010).
(§6) The present inventors examined whether Formula I, or Formula II compounds were effective inhibiting viral transcription in cell lines infected with an HIV-1 construct. Thus, Jurkat T-cells and promonocytic U937 cells were transfected with pNL4.3 and then treated with Flavopiridol, CR8 and CR8#13. Similar to monocytes, the Dicer levels are low to undetectable in promonocytic cells (FIG. 6) and was detectable only when these cells had differentiated into macrophages with PMA treatment.
(§7) Following drug treatment cell supernatants were collected and processed for exogenous reverse transcriptase (RT) levels.

[8] = tested on: HIV-1 (pNL4.3) in Jurkat T-cells; experiment: as above; format: cell-based; details: Flavopiridol 200 nm, CR8 100 nm, CR8#13 50 nm, 48 hours
Method: as §4, §5, §6, §7

| SMILES | death of uninfected cells (MTT) ([1]; high concentration of 10 μM) | 3′ TAR microRNA amount (3′TAR and 5′TAR microRNA) | Inhibition Percentage J1.1 ([2]; 50 nM, 48 hrs, HIV-1 infected) | Inhibition Percentage U1 ([3]; 50 nM, 48 hrs, HIV-1 infected) | Inhibition Percentage OM10.1 ([4]; 50 nM, 48 hrs, HIV-1 infected) | Inhibition Percentage ACH2 ([5]; 50 nM, 48 hrs) | Inhibition Percentage Jurkat ([6]; 50 nM, 48 hrs) | RT levels in supernatant [7] | RT levels in supernatant [8] | cell inhibition of uninfected cells (MTT) ([1]; 50 nm and 10 μM) | 3′ and 5′ TAR microRNA amount (3′TAR and 5′TAR microRNA; TZM-bl cells treated with TSA for 7 days, then drug) | inhibition at 10 µM ([2]; Human immunodeficiency virus 1, 48 h, read-out: % Inhibition (percent dead cells) J1.1) [%] | inhibition at 10 µM ([3]; Human immunodeficiency virus 1, 48 h, read-out: % Inhibition (percent dead cells) U1) [%] | inhibition at 10 µM ([4]; Human immunodeficiency virus 1, 48 h, read-out: % Inhibition (percent dead cells) OM10.1) [%] | inhibition at 10 µM ([5]; Human immunodeficiency virus 1, ACH-2, 48 h, 10 μM, 48 hours, read-out: % Inhibition (percent dead cells) ACH2) [%] | inhibition at 10 µM ([6]; Homo sapiens, Jurkat, 10 μM, 48 hours, read-out: % Inhibition (percent dead cells) Jurkat) [%] |
| --- | --- | --- | --- | --- | --- | --- | --- | --- | --- | --- | --- | --- | --- | --- | --- | --- |
| CC(C)c1cnn2c(NCc3ccc(-c4ccccn4)cc3)nc(NC[C@H](O)CO)nc12.O=C(O)/C=C/C(=O)O [BJFP1154] | marginal, if any death of uninfected cells | significantly increased amount of the 3′ TAR microRNA | − (1-5%) | − (1-5%) | − (1-5%) | − (1-5%) | − (1-5%) | not U937 monocytic cells | effective at decreasing RT levels |  |  |  |  |  |  |  |
| CC[C@@H](CO)Nc1nc(NCc2ccc(-c3ccccn3)cc2)c2ncn(C(C)C)c2n1 [CR8] |  | significantly increased amount of the 3′ TAR microRNA |  |  |  |  |  | not U937 monocytic cells | effective at decreasing RT levels | some cell inhibition activity of uninfected cells | higher amounts of both 3′ and 5′ TAR microRNA | 75 | 90 | 75 | 90 | 50 |
